A word on the EC50: it is the concentration needed to bring the measured effect to its halfway point.

Transient receptor potential cation channel subfamily V member 1, sequence (Q8NER1 whole entry): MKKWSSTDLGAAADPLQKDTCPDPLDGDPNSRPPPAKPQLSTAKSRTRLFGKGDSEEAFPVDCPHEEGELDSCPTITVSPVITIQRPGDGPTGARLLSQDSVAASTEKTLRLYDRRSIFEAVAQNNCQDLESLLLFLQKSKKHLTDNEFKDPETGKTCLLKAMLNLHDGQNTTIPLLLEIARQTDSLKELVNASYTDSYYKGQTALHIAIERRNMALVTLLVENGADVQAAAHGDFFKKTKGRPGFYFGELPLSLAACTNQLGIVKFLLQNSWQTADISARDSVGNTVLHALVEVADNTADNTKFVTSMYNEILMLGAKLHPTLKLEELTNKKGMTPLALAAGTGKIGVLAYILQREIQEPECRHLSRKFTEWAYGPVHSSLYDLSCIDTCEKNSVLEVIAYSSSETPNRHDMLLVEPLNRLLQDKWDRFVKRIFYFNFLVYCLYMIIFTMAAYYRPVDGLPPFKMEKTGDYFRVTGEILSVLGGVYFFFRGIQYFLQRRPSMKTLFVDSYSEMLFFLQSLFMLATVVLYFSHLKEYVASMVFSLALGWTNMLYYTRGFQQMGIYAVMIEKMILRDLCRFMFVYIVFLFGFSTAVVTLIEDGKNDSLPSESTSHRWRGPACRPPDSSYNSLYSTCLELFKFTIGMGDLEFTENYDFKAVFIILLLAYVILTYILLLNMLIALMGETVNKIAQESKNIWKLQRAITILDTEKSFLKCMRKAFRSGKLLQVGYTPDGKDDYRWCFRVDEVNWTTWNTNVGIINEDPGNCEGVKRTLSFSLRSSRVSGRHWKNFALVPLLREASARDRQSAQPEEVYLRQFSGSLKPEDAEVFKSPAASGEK

The target of the test is Transient receptor potential cation channel subfamily V member 1 (Homo sapiens, UniProt Q8NER1). As to the kind of experiment: FLIPR (Fluorescence Imaging Plate Reader)-Based Ca2+ Assay. As to conditions: pH 7.2; 25 °C. The protocol:
One day before the assay was performed, human TRPV1 expressed in 1321N1 astrocytoma cells were plated onto 96-well assay plates and grown until 2.5 h before the assay, and the cells were loaded with the Ca2+ reporter dye Fluo3-AM for 2 h at room temperature. After this, the cells were washed, and continuously being incubated for 30 min with medium containing test compounds at a range of different concentrations.
On to `COc1cccc(NC(=O)/C=C/c2ccc(Cl)cc2)c1` [(2E)-3-(4-chlorophenyl)-N-(3-methoxyphenyl)prop-2-enamide], for which a half-maximal response (EC50) required 20 nM.

Turning to `CCN(CCNC(=O)Nc1ccccc1Br)c1cccc(C)c1` [3-(2-bromophenyl)-1-{2-[ethyl(3-methylphenyl)amino]ethyl}urea], the EC50 stood at 16 nM. Next, `Oc1cc2c(cc1O)CN(C(=S)NCCc1ccc(Cl)cc1)CCC2` [N-[2-(4-chlorophenyl)ethyl]-7,8-dihydroxy-2,3,4,5-tetrahydro-1H-2-benzazepine-2-carbothioamide]: 32 nM.
